This note sets out measurements from ChEMBL document CHEMBL4837259, “Comprehensive Approach of 19F Nuclear Magnetic Resonance, Enzymatic, and In Silico Methods for Site-Specific Hit Selection and Validation of Fragment Molecules that Inhibit Methionine γ-Lyase Activity” (J Med Chem, 2021).

Active and inactive are the calls of the source. The rule behind the calls is not given here.

Test [1] concerns Fusobacterium nucleatum. Briefly: Inhibition of Fusobacterium nucleatum ATCC 25586 recombinant MGL R58A mutant expressed in Escherichia coli BL21 (DE3) assessed as decrease in signal intensity by measuring recovery ratio by 19F NMR based competition assay relative to wild type. Further details: scale not given: the % may be the effect or the level left.
Test [2] relates to Fusobacterium nucleatum. The test is described as follows: Inhibition of Fusobacterium nucleatum ATCC 25586 recombinant MGL C113S mutant expressed in Escherichia coli BL21 (DE3) assessed as decrease in signal intensity by measuring recovery ratio by 19F NMR based competition assay relative to wild type. On the set-up: scale not given: the % may be the effect or the level left.

For test [3], the system named is Fusobacterium nucleatum. The test is described as follows: Inhibition of Fusobacterium nucleatum ATCC 25586 recombinant MGL R373K mutant expressed in Escherichia coli BL21 (DE3) assessed as decrease in signal intensity by measuring recovery ratio by 19F NMR based competition assay relative to wild type. Further details: concentration or dose not given beside the values.

The subject of test [4] is Fusobacterium nucleatum. The test is described as follows: Inhibition of Fusobacterium nucleatum ATCC 25586 recombinant MGL Y111F mutant expressed in Escherichia coli BL21 (DE3) assessed as decrease in signal intensity by measuring recovery ratio by 19F NMR based competition assay relative to wild type. On the set-up: concentration or dose not given beside the values.
The test system of test [5] is Fusobacterium nucleatum. The test is described as follows: Inhibition of Fusobacterium nucleatum ATCC 25586 recombinant MGL R58K mutant expressed in Escherichia coli BL21 (DE3) assessed as decrease in signal intensity by measuring recovery ratio by 19F NMR based competition assay relative to wild type. On the set-up: scale not given: the % may be the effect or the level left.

Test [6] has as its system Fusobacterium nucleatum. Briefly: Inhibition of Fusobacterium nucleatum ATCC 25586 recombinant MGL Y56F mutant expressed in Escherichia coli BL21 (DE3) assessed as decrease in signal intensity by measuring recovery ratio by 19F NMR based competition assay relative to wild type. Further details: concentration or dose not given beside the values.
The subject of test [7] is Fusobacterium nucleatum. The test is described as follows: Inhibition of Fusobacterium nucleatum ATCC 25586 recombinant MGL K238A mutant expressed in Escherichia coli BL21 (DE3) assessed as decrease in signal intensity by measuring recovery ratio by 19F NMR based competition assay relative to wild type. Further details: concentration or dose not given beside the values.

Test [8] has as its target T1, L-methionine gamma-lyase (Fusobacterium nucleatum subsp. nucleatum) (UniProt Q8RDT4).
T1 sequence (whole entry): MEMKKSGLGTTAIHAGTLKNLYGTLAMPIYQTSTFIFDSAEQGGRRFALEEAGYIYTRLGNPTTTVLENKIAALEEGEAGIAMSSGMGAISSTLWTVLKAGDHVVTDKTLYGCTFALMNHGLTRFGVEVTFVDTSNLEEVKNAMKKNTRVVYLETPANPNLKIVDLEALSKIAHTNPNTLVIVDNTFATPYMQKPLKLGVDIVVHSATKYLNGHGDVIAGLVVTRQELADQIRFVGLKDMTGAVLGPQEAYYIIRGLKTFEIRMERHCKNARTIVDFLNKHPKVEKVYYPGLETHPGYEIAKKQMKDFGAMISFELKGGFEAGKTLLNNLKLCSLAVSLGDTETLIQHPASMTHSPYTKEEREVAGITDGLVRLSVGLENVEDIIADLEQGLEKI
Briefly: Inhibition of Fusobacterium nucleatum ATCC 25586 recombinant wild type MGL expressed in Escherichia coli BL21 (DE3) assessed as decrease in signal intensity by 19F NMR based competition assay relative to control. On the set-up: concentration or dose not given beside the values.

Test [9] concerns the target T1, L-methionine gamma-lyase (Fusobacterium nucleatum subsp. nucleatum). Briefly: Inhibition of Fusobacterium nucleatum ATCC 25586 recombinant wild type MGL expressed in Escherichia coli BL21 (DE3) assessed as formation of 2-ketobutyrate using L-methionine as substrate by enzymatic assay. Particulars: concentration not given here. Further details: concentration or dose not given beside the values.

Test [10] deals with Fusobacterium nucleatum. The test is described as follows: Inhibition of Fusobacterium nucleatum ATCC 25586 recombinant MGL R373A mutant expressed in Escherichia coli BL21 (DE3) assessed as decrease in signal intensity by measuring recovery ratio by 19F NMR based competition assay relative to wild type. On the set-up: scale not given: the % may be the effect or the level left.

As usually defined, the inhibition is the relative decrease from the control value, in per cent. Turning to `CC(C)(C)OC(=O)N1CCC(CN)(c2ccccc2C(F)(F)F)CC1`, the result in the test on Fusobacterium nucleatum [1], with Fusobacterium nucleatum [3], with Fusobacterium nucleatum [4] and in the test with Fusobacterium nucleatum [10] was Active. Moreover, the Activity in the test with Fusobacterium nucleatum [2] turned out to be 50%; with Fusobacterium nucleatum [5], 80%; in the test on Fusobacterium nucleatum [6] it was 80%; with Fusobacterium nucleatum [7] it was 50%; in test [8] it was 75%. In addition, the inhibition in [9] came out at 41%.

For the molecule `CCOC(=O)c1nc(-c2ccccc2F)no1`, the Activity with Fusobacterium nucleatum [1] was 50%; with Fusobacterium nucleatum [4], 50%; in the test with Fusobacterium nucleatum [5], 50%; with Fusobacterium nucleatum [6], 80%; in test [8] it was 82%; in the test with Fusobacterium nucleatum [10], 80%. Moreover, the result in the test with Fusobacterium nucleatum [2], in the test on Fusobacterium nucleatum [3] and with Fusobacterium nucleatum [7] was Active. Also, the inhibition in test [9] was 13.3%.

As to `CC(C)(CC(=O)O)c1ccc(C(F)(F)F)cc1`, the Activity is 80% with Fusobacterium nucleatum [1]; 80% in the test on Fusobacterium nucleatum [4]; 80% with Fusobacterium nucleatum [5]; 80% in the test with Fusobacterium nucleatum [6]; 50% in the test on Fusobacterium nucleatum [7]; 62% in [8]. Also, the Activity in the test on Fusobacterium nucleatum [10] stood at 50%. Also, the result with Fusobacterium nucleatum [2] and in the test with Fusobacterium nucleatum [3] was Active. For the same molecule, the inhibition in [9] was 11.3%.

`O=C(O)c1ccnc(OC(F)F)c1`: the Activity stood at 80% with Fusobacterium nucleatum [1]; 50% with Fusobacterium nucleatum [2]; 50% with Fusobacterium nucleatum [3]; 80% in the test with Fusobacterium nucleatum [5]; 80% in the test with Fusobacterium nucleatum [6]; 67% in test [8]. In addition, in the test on Fusobacterium nucleatum [10], the Activity is 80%. Besides, the outcome with Fusobacterium nucleatum [4] and in the test on Fusobacterium nucleatum [7] was Active. Also, the inhibition in test [9] amounted to 1.5%.

For the molecule `CC(C)(C)OC(=O)N1CCC(CN)(Cc2ccccc2C(F)(F)F)CC1`, the Activity in the test on Fusobacterium nucleatum [1] was found to be 50%; in the test with Fusobacterium nucleatum [2] it was 80%; with Fusobacterium nucleatum [5] it was 80%; in the test on Fusobacterium nucleatum [6] it was 80%; in test [8], 85%. Also, the outcome in the test on Fusobacterium nucleatum [3], with Fusobacterium nucleatum [4], in the test with Fusobacterium nucleatum [7] and in the test with Fusobacterium nucleatum [10] was Active. Moreover, the inhibition in [9] amounted to 56.5%.

In the case of `Cc1ccc2[nH]cc(C(C(=O)O)C(F)(F)F)c2c1` (configuration not stated), the Activity in the test with Fusobacterium nucleatum [1] is 80%; in the test with Fusobacterium nucleatum [4] it was 80%; in the test with Fusobacterium nucleatum [5], 80%; in the test on Fusobacterium nucleatum [6], 80%; in test [8], 48%; in the test on Fusobacterium nucleatum [10], 50%. Moreover, the outcome in the test with Fusobacterium nucleatum [2] was inactive. Also, the result in the test with Fusobacterium nucleatum [3] and in the test with Fusobacterium nucleatum [7] was Active. In addition, the inhibition in test [9] was 9.3%.

Turning to `CC(C)(C)OC(=O)N[C@H]1CC[C@H](N2Cc3cccc(F)c3C2=O)CC1`, the result in the test on Fusobacterium nucleatum [1], with Fusobacterium nucleatum [2], in the test on Fusobacterium nucleatum [3], in the test with Fusobacterium nucleatum [4], with Fusobacterium nucleatum [5] and with Fusobacterium nucleatum [7] was Active. Also, the result in the test on Fusobacterium nucleatum [10] was Active. For the same molecule, the Activity came out at 50% in the test on Fusobacterium nucleatum [6] and 100% in [8]. In addition, the inhibition in [9] came to 53.7%.

For the molecule `CC(C)(Cc1ccc(C(F)(F)F)cc1)C(=O)O`, the Activity in the test with Fusobacterium nucleatum [1] is 80%; with Fusobacterium nucleatum [4], 80%; with Fusobacterium nucleatum [5] it was 50%; in the test on Fusobacterium nucleatum [6], 80%; in the test with Fusobacterium nucleatum [7], 80%; in test [8], 55%. Further, the Activity in the test on Fusobacterium nucleatum [10] was 50%. The outcome in the test with Fusobacterium nucleatum [2] was Active. Also, the result in the test with Fusobacterium nucleatum [3] was inactive. Further, the inhibition in [9] turned out to be 8.3%.

Turning to `CC(C)(C)OC(=O)N[C@H]1CC[C@H](N2Cc3ccc(F)cc3C2=O)CC1`, the outcome with Fusobacterium nucleatum [1], with Fusobacterium nucleatum [3], with Fusobacterium nucleatum [4], with Fusobacterium nucleatum [7] and with Fusobacterium nucleatum [10] was Active. The Activity in the test with Fusobacterium nucleatum [2] is 50%; in the test on Fusobacterium nucleatum [5], 50%; in the test on Fusobacterium nucleatum [6] it was 50%; in [8], 70%. Further, in test [9], the inhibition was -1.2%.

As to `CC(C)(C)OC(=O)N1CCC(CN)(c2ccc(F)cc2)CC1`, the Activity came out at 50% in the test on Fusobacterium nucleatum [1]; 50% in the test on Fusobacterium nucleatum [4]; 50% with Fusobacterium nucleatum [5]; 80% with Fusobacterium nucleatum [6]; 50% in the test on Fusobacterium nucleatum [7]; 20% in test [8]. The result in the test on Fusobacterium nucleatum [2], in the test on Fusobacterium nucleatum [3] and with Fusobacterium nucleatum [10] was Active. Moreover, the inhibition in [9] was 12.9%.

Regarding `Nc1cc(F)c(OCC2CCC2)c(F)c1`, the result in the test on Fusobacterium nucleatum [1] and in the test on Fusobacterium nucleatum [4] was Active. In addition, the Activity in the test with Fusobacterium nucleatum [2] turned out to be 50%; in the test with Fusobacterium nucleatum [5], 50%; in the test on Fusobacterium nucleatum [6], 80%; in the test with Fusobacterium nucleatum [7] it was 50%; in test [8] it was 55%. The result in the test with Fusobacterium nucleatum [3] and in the test on Fusobacterium nucleatum [10] was inactive. In addition, the inhibition in test [9] stood at 11.6%.

As to `O=C(O)c1ccc(OC(F)F)nc1`, the Activity turned out to be 50% in the test on Fusobacterium nucleatum [1]; 50% in the test with Fusobacterium nucleatum [5]; 80% in the test with Fusobacterium nucleatum [6]; 78% in test [8]; 80% with Fusobacterium nucleatum [10]. Moreover, the result with Fusobacterium nucleatum [2], with Fusobacterium nucleatum [3], in the test with Fusobacterium nucleatum [4] and in the test on Fusobacterium nucleatum [7] was Active. In addition, the inhibition in [9] turned out to be 12.6%.

`O=C(O)c1ccnc(OC(F)(F)F)c1`: the Activity in the test on Fusobacterium nucleatum [1] is 80%; in the test with Fusobacterium nucleatum [3], 50%; in the test with Fusobacterium nucleatum [4], 50%; in the test with Fusobacterium nucleatum [5], 80%; in the test on Fusobacterium nucleatum [6] it was 80%; in the test with Fusobacterium nucleatum [7], 50%. Also, the Activity in test [8] was found to be 76%; in the test on Fusobacterium nucleatum [10] it was 80%. In the test with Fusobacterium nucleatum [2], the outcome was Active. In addition, the inhibition in test [9] was 22.3%.

Consider `O=C(O)c1cncc(OCC(F)(F)F)c1`, for which the Activity in the test with Fusobacterium nucleatum [1] was 80%; in the test on Fusobacterium nucleatum [4] it was 50%; in the test with Fusobacterium nucleatum [5], 80%; in the test on Fusobacterium nucleatum [6], 80%; in test [8] it was 35%; in the test with Fusobacterium nucleatum [10], 50%. Further, the outcome in the test on Fusobacterium nucleatum [2] was inactive. The outcome in the test with Fusobacterium nucleatum [3] and with Fusobacterium nucleatum [7] was Active. Further, the inhibition in test [9] amounted to 9.1%.

Turning to `COCCOc1ccc(C(=O)O)cc1C(F)(F)F`, the Activity with Fusobacterium nucleatum [1] was 80%; in the test on Fusobacterium nucleatum [2] it was 50%; in the test on Fusobacterium nucleatum [3] it was 50%; with Fusobacterium nucleatum [4], 80%; in the test on Fusobacterium nucleatum [5], 80%; in the test with Fusobacterium nucleatum [6] it was 80%. The Activity was 67% in test [8] and 80% with Fusobacterium nucleatum [10]. Besides, in the test with Fusobacterium nucleatum [7], the result was Active. The inhibition in [9] came out at 16.2%.

With `CC(C)(Cc1cccc(C(F)(F)F)c1)C(=O)O`, the Activity amounted to 80% with Fusobacterium nucleatum [1]; 50% in the test with Fusobacterium nucleatum [4]; 80% with Fusobacterium nucleatum [5]; 80% in the test with Fusobacterium nucleatum [6]; 50% in the test on Fusobacterium nucleatum [7]; 64% in test [8]. In the test on Fusobacterium nucleatum [10], the Activity turned out to be 80%. Besides, the result in the test with Fusobacterium nucleatum [2] and with Fusobacterium nucleatum [3] was Active. Moreover, the inhibition in test [9] is 27.5%.

As for `Fc1cccc(-c2nnc3ccc(Br)cn23)c1`, the Activity in [8] turned out to be 89%. Further, in test [9], the inhibition was determined as 7.2%.

In the case of `O=C(O)c1cn(-c2cccc(F)c2)cn1`, the Activity in the test with Fusobacterium nucleatum [1] is 80%; with Fusobacterium nucleatum [5] it was 80%; with Fusobacterium nucleatum [6], 80%; in [8], 36%; with Fusobacterium nucleatum [10], 80%. Also, the result in the test on Fusobacterium nucleatum [2] was Active. Besides, the result in the test on Fusobacterium nucleatum [3], in the test with Fusobacterium nucleatum [4] and in the test on Fusobacterium nucleatum [7] was inactive. Moreover, the inhibition in [9] was -4.1%.
